Test results reported in article PMC11395145, “The Archetypal Gamma-Core Motif of Antimicrobial Cys-Rich Peptides Inhibits H^+-ATPases in Target Pathogens” (International Journal of Molecular Sciences, 2024).
Where a SMILES comes first, the peptide text is derived from it. Bridges are numbered along the chain shown (N, C = ends).

Columns and labels:
[1] = tested on: Candida albicans ATCC 10231; assay: Microbicidal (spread-plate cell viability) assay, candidacidal activity; assay type: cell-based; details: for microbicidal (candidacidal) activity, in words: 90 min, 37 °C, Tris buffer pH 7.4, 10^6 cells/mL, CFU plating
Experimental: (§1) First, we tested the antimicrobial activity of Kal-1 and a shorter Kal-1-derived peptide (Kdp15), both containing the complete γ-core signature of human lactoferrin, against C. albicans and P. aeruginosa. Microbicidal (cidal) activity was determined after 90 min of incubation (37 °C; pH 7.4) with a range of concentrations of each hLf-derived peptide.
(§2) Figure 1 Cell viability and membrane permeabilization assays. C. albicans or P. aeruginosa (10^6 cells/mL) were incubated (90 min, 37 °C) with each peptide/protein at the indicated concentrations. Aliquots were plated on SDA or […], and colonies were counted after 24–48 h (C. albicans) or 24 h (P. aeruginosa). At each point, samples were stained with propidium iodide (PI) and intracellular PI incorporation, indicative of membrane permeabilization, was quantified by flow cytometry. The relative cell viability (blue lines) and cellular permeabilization (red lines) were calculated as the percentage of untreated cells. Human lactoferrin (hLf) and the peptide Lfpep were used as negative and positive controls of cellular permeabilization, respectively.
(§3) Microbial susceptibility to the peptides was determined in a spread-plate assay as described previously. Briefly, two-fold serially diluted peptides were incubated (37 °C) with approximately 10^6 cells/mL in Tris buffer (10 mM Tris-HCl, pH 7.4). After 90 min of incubation with the peptides, aliquots were removed and plated in duplicate on an appropriate agar plate for each species (SDA for C. albicans, TSA for P. aeruginosa). The plates were incubated for 24–48 h at 30 °C (C. albicans) or 24 h at 37 °C (P. aeruginosa) for enumeration. The cell viability values, expressed as colony forming units (CFUs), were determined relative to incubation without added peptides and represent the mean ± standard deviation (±SD) of at least three independent determinations. For inhibition assays, the cell suspensions were preincubated (15 min at 37 °C) with the corresponding inhibitors before the addition of peptides. Water-insoluble inhibitors were prepared in DMSO, such that the final assay volume was ≤1%. Other specific experimental inhibition conditions are described where appropriate. The IC50 value is expressed as the concentration that caused 50% reduction in viable counts.

[2] = tested on: Pseudomonas aeruginosa 10145 (PAO1); assay: Microbicidal (spread-plate cell viability) assay, pseudomonacidal activity; assay type: cell-based; details: for microbicidal (pseudomonacidal) activity, in words: 90 min, 37 °C, Tris buffer pH 7.4, 10^6 cells/mL, CFU plating
Experimental: as §1, §2, §3

P. aeruginosa cells = assay: Oxygen consumption measurement (Clark-type electrode); assay type: cell-based, Pseudomonas aeruginosa; details: 5 × 10^6 cells/mL, peptides at IC50, piericidin A 32 μM, at least 30 min, 25 °C
Experimental: (§4) Figure 3 Effect of cellular respiration on the microbicidal activity of hLf γ-core-containing peptides. (A,C) Oxygen consumption was measured in C. albicans and P. aeruginosa cellular suspensions in the absence (control) or the presence of kaliocin-1 (Kal-1), Kdp15, or human lactoferrin (hLf), and piericidin A (positive control). (B,D) Effect of cellular respiration on the microbicidal activity of hLf γ-core-containing peptides. Cells (10^6 cells/mL) were pre-incubated (15 min, 37 °C) with 32 μM piericidin A and incubated for 90 min at 37 °C with the peptides hLf or BM2. The cell viability was determined by means of the plate counting method. The results are the mean ± SD from duplicates of at least three independent experiments. * p < 0.05, ** p < 0.01, and *** p < 0.001 were used.
(§5) C. albicans or P. aeruginosa cells were grown to the mid-logarithmic phase, washed twice in Tris buffer, and resuspended in the same buffer, as described in [9, 10]. Briefly, cells (5 × 10^6 cells/mL) were pre-incubated for 15 min at 37 °C with the peptides (IC50). […] Oxygen consumption was measured using a Clark-type oxygen electrode (Dual digital-model 20, Rank Brothers Ltd., Cambridge, UK) in a closed jacketed chamber maintained at 25 °C. […] The viability of the cells was determined at 30 min by removing aliquots from the oxygen chambers and plating the subsequent dilutions on SDA or TSA plates.

C. albicans cells [3] = assay: as above; assay type: cell-based, Candida albicans; details: 5 × 10^6 cells/mL, peptides at IC50, piericidin A 32 μM, at least 30 min, 25 °C
Experimental: as §4, §5

C. albicans cells [4] = assay: Measurement of intracellular ATP (BacTiter-Glo); assay type: cell-based, Candida albicans; details: C. albicans 10^6 cells/mL, candidacidal concentration, 90 min, 37 °C; BM2 0.25 μM
Experimental: Total ATP was measured by using the BacTiter-Glo^TM Microbial Cell Viability Assay (Promega Co., Madison, WI, USA) according to the manufacturer’s instructions. […] Aliquots (100 μL) were incubated (90 min at 37 °C) with kaliocin-1, Kdp15, or human lactoferrin and the BM2 peptide (positive control). One hundred microliters of incubation mix was transferred into a 96-well opaque white plate, mixed with an equal volume of the BacTiter-Glo reagent, and incubated for 15 min in the dark. The reagent used a thermostable luciferase to produce luminescence in an ATP-dependent manner. The emitted luminescence was detected by using a Varioskan Flash multimode reader (Thermo Scientific, Waltham, MA, USA) with a 10 s of shaking and 1 s integration time. A calibration curve was prepared for each experiment, with ATP standards ranging from 1 to 1000 nM. For assays performed in the presence of the BM2 peptide, samples were preincubated with 0.25 μM BM2 for 30 min at 37 °C. All the tests were performed in triplicate at least four times.

[5] = tested on: Candida albicans ATCC 10231; details: used in control assays; cited from earlier work
Experimental: as §1, with “peptide. The hLf γ-core-containing peptides were microbicidal in a concentration-dependent way (Figure 1). […] The IC50 es ...” for “peptide.”

[6] = concentration range 0 to 100 μM

CC[C@H](C)[C@@H]1NC(=O)[C@H](C(C)C)NC(=O)[C@H](CC(C)C)NC(=O)CNC(=O)[C@H](C(C)C)NC(=O)[C@@H]2CCCN2C(=O)[C@H]([C@@H](C)CC)NC(=O)[C@@H]2CSSC[C@@H]3NC(=O)[C@H](C(C)C)NC(=O)CNC(=O)[C@H](CC(N)=O)NC(=O)[C@@H](NC(=O)[C@H](CO)NC(=O)[C@H](C)NC(C)=O)CSSC[C@H](NC(=O)[C@H](C)NC(=O)[C@H](CO)NC(=O)[C@H]([C@@H](C)O)NC(=O)CNC(=O)[C@H](CSSC[C@@H](C(=O)N[C@@H](CCCNC(=N)N)C(=O)N[C@@H](CC(N)=O)C(=O)N4CCC[C@H]4C(=O)N[C@@H](CO)C(=O)NCC(N)=O)NC(=O)[C@H](Cc4ccc(O)cc4)NC(=O)CNC1=O)NC(=O)[C@@H]1CCCN1C(=O)[C@@H]1CCCN1C(=O)[C@H](CCSC)NC(=O)[C@H](CCC(=O)O)NC(=O)[C@H](Cc1ccccc1)NC(=O)[C@@H]1CCCN1C(=O)[C@H](CO)NC3=O)C(=O)N[C@@H](CCCNC(=N)N)C(=O)N2 [PA1b] (Ac-ASCNGVCSPFEMPPCGTSACRCIPVGLVIGYCRNPSG-NH2; disulfide 3-20, 7-22, 15-32)
microbicidal (candidacidal) activity, in words [1]: showed candidacidal activity
microbicidal (pseudomonacidal) activity, in words [2]: not pseudomonacidal

C/C=C(\C)[C@H](O)[C@H](C)/C=C(C)/C=C/C/C(C)=C/Cc1nc(OC)c(OC)c(O)c1C [piericidin A, reference compound]
oxygen consumption of P. aeruginosa in presence of the substance (P. aeruginosa cells): inhibited
oxygen consumption of C. albicans in presence of the substance (C. albicans cells [3]): inhibited

CAGTGENKC [Kdp9]
antimicrobial activity, in words [1, 6]: not detected
antimicrobial activity, in words [2, 6]: not detected

D-NH2-RRRFWWFRRR-CONH2 [BM2, reference compound]
decrease of candidacidal activity by oligomycin A ([1]; 0.25 μM BM2, cells pre-incubated 15 min, 37 °C with 16 μg/mL oligomycin A): ~ 62%
effect of high external K^+ on candidacidal activity ([1]; Tris buffer with 50 mM KCl vs without): decreased
effect of respiration inhibition (piericidin A) on candidacidal activity ([1]; cells pre-incubated 15 min, 37 °C with 32 μM piericidin A, then 90 min with peptide): substantially inhibited
effect of Tok1p K^+ channel block (TEA^+) on candidacidal activity ([1]; cells pre-incubated 15 min with 10 mM TEA^+): significantly (p < 0.001) inhibited
increment in intracellular ATP (iATP) level compared to untreated control (C. albicans cells [4]): ~ 9 fold
previously reported microbicidal concentration (organism not given) [5]: 0.25 µM

GSKKPVPIIYCNRRTGKCQRM [Thanatin, complete 21-aa antimicrobial peptide from Podisus maculiventris (insect)]
microbicidal (candidacidal) activity, in words [1]: most potent
microbicidal (pseudomonacidal) activity, in words [2]: most potent

HCKNKEHLRSGRCRDDFRCWCT [PvD1, 22-aa γ-core fragment of defensin PvD1 from Phaseolus vulgaris (bean)]
microbicidal (pseudomonacidal) activity, in words [2]: showed pseudomonacidal activity
